Measured values reported in article PMC9617675 (Antiviral Research, 2022).
“And” between values parts separate entries of the source, which are not always exact repeats. Identical values can stand only once. Like-named read-outs stand apart in the source and are kept apart here.

Tests used:
[1] = in vitro; conditions: African green monkey
[2] = healthy human; ref NCT05197179 and NCT04766931; cited from earlier work
[3] = system: SARS-CoV-2; test: Time of addition assay in Vero E6 cells; type: cell-based; conditions: 2 μM, 10 μM, 1 μM + P-gp inhibitor; entry, post entry and full-time
[4] = system: SARS-CoV-2 wild-type (2019-nCoV-WIV04); type: cell-based
[5] = system: SARS-CoV-2 (2019-nCoV-WIV04); type: cell-based; conditions: Vero E6
[6] = system: SARS-CoV-2 B.1.351 (Beta); type: cell-based; conditions: Vero E6 cells, mean ± SD
[7] = system: Vero E6 cells
[8] = system: SARS-CoV-2 B.1.617.2 (Delta); type: cell-based; conditions: Vero E6 cells, mean ± SD
[9] = system: SARS-CoV-2 B.1.1.7 (Alpha); type: cell-based; conditions: Vero E6 cells, mean ± SD

SMILES | CC50 [1] | safety and tolerability [2] | antiviral activity in time of addition assay [3] | EC50 [4] | EC90 [4] | EC50 ([5]; 10% human serum) | EC50 ([5]; 20% human serum) | EC50 ([5]; 30% human serum) | EC50 ([5]; 40% human serum) | EC50 ([5]; 50% human serum) | EC50 [6] | EC90 [6] | CC50 ([7]; CCK8, 24 h) | CC50 ([7]; CCK8, with P-gp inhibitor CP-100356) | EC50 [8] | EC90 [8] | EC50 [9] | EC90 [9]
CCN(CC)CCCC(C)Nc1ccnc2cc(Cl)ccc12 (stereo not drawn) [Chloroquine phosphate] | > 100000 nM | – | – | – | – | – | – | – | – | – | – | – | – | – | – | – | – | –
O=C[C@H](C[C@@H]1CCNC1=O)NC(=O)[C@H](CC1CCCCC1)NC(=O)c1cc2ccccc2[nH]1 [FB2001] | – | good safety and tolerability | potent antiviral activities under all conditions | 420 ± 80 nM | 1360 ± 1730 nM | 1100 nM | 1910 nM | 2570 nM | 2150 nM | 2400 nM | 280 ± 110 nM | 570 ± 210 nM | 243000 nM and 274000 nM | 142000 nM | 270 ± 50 nM | 810 ± 200 nM | 390 ± 10 nM | 750 ± 10 nM
CC(C)(C)[C@H](NC(=O)C(F)(F)F)C(=O)N1C[C@H]2[C@@H]([C@H]1C(=O)N[C@H](C#N)C[C@@H]1CCNC1=O)C2(C)C [PF-07321332, reference compound] | – | – | – | – | – | – | – | – | – | – | 490 ± 60 nM | 1740 ± 260 nM | – | – | 780 ± 210 nM | 1890 ± 100 nM | 820 ± 20 nM | 1540 ± 20 nM
